Legend:
Type in all cases: functional
Homo sapiens [1] = organism: Homo sapiens; assay: Mitogen-induced human lymphocyte proliferation measured by incorporation of [3H]thymidine in lymphocytes with Pokeweed mitogen at a concentration of 1/1250 microg with compound at 10 uM
Homo sapiens [2] = organism: Homo sapiens; assay: Mitogen-induced human lymphocyte proliferation measured by incorporation of [3H]thymidine in lymphocytes with Phytohemagglutininin at a concentration of 1 ug with out compound
Homo sapiens [3] = organism: Homo sapiens; assay: Mitogen-induced human lymphocyte proliferation measured by incorporation of [3H]thymidine in lymphocytes with Pokeweed mitogen at a concentration of 1/5000 microg with compound at 400 uM
Homo sapiens [4] = organism: Homo sapiens; assay: Mitogen-induced human lymphocyte proliferation measured by incorporation of [3H]-thymidine in lymphocytes with Pokeweed mitogen at a concentration of 1/1250 microg with out compound
Homo sapiens [5] = organism: Homo sapiens; assay: Mitogen-induced human lymphocyte proliferation measured by incorporation of [3H]thymidine in lymphocytes with Concanavalin A (Con A) at a concentration of 0.25 microg with compound at 10 uM
Homo sapiens [6] = organism: Homo sapiens; assay: Mitogen-induced human lymphocyte proliferation measured by incorporation of [3H]thymidine in lymphocytes with Phytohemagglutininin at a concentration of 1 ug with compound at 10 uM
Homo sapiens [7] = organism: Homo sapiens; assay: Mitogen-induced human lymphocyte proliferation measured by incorporation of [3H]thymidine in lymphocytes with Pokeweed mitogen at a concentration of 1/5000 microg with compound at 10 uM
Homo sapiens [8] = organism: Homo sapiens; assay: Mitogen-induced human lymphocyte proliferation measured by incorporation of [3H]thymidine in lymphocytes with Phytohemagglutininin at a concentration of 0.125 microg with compound at 0.1 uM
Homo sapiens [9] = organism: Homo sapiens; assay: Mitogen-induced human lymphocyte proliferation measured by incorporation of [3H]thymidine in lymphocytes with Concanavalin A (Con A) at a concentration of 0.25 microg with compound at 1 uM
Homo sapiens [10] = organism: Homo sapiens; assay: Mitogen-induced human lymphocyte proliferation measured by incorporation of [3H]thymidine in lymphocytes with Phytohemagglutininin at a concentration of 0.125 microg with out compound
Homo sapiens [11] = organism: Homo sapiens; assay: Mitogen-induced human lymphocyte proliferation measured by incorporation of [3H]thymidine in lymphocytes with Pokeweed mitogen at a concentration of 1/5000 microg with compound at 50 uM
Homo sapiens [12] = organism: Homo sapiens; assay: Mitogen-induced human lymphocyte proliferation measured by incorporation of [3H]thymidine in lymphocytes with Phytohemagglutininin at a concentration of 1 ug with compound at 400 uM
Homo sapiens [13] = organism: Homo sapiens; assay: Mitogen-induced human lymphocyte proliferation measured by incorporation of [3H]thymidine in lymphocytes with Pokeweed mitogen at a concentration of 1/1250 microg with compound at 400 uM
Homo sapiens [14] = organism: Homo sapiens; assay: Mitogen-induced human lymphocyte proliferation measured by incorporation of [3H]thymidine in lymphocytes with Pokeweed mitogen at a concentration of 1/5000 microg with out compound
Homo sapiens [15] = organism: Homo sapiens; assay: Mitogen-induced human lymphocyte proliferation measured by incorporation of [3H]thymidine in lymphocytes with Concanavalin A at a concentration of 0.25 microg with compound at 400 uM
Homo sapiens [16] = organism: Homo sapiens; assay: Mitogen-induced human lymphocyte proliferation measured by incorporation of [3H]thymidine in lymphocytes with Phytohemagglutininin at a concentration of 0.125 microg with compound at 1 uM
Homo sapiens [17] = organism: Homo sapiens; assay: Mitogen-induced human lymphocyte proliferation measured by incorporation of [3H]thymidine in lymphocytes with Concanavalin A (Con A) at a concentration of 0.25 microg with out compound
Homo sapiens [18] = organism: Homo sapiens; assay: Mitogen-induced human lymphocyte proliferation measured by incorporation of [3H]thymidine in lymphocytes with Phytohemagglutininin at a concentration of 0.125 microg with compound at 400 uM
Homo sapiens [19] = organism: Homo sapiens; assay: Mitogen-induced human lymphocyte proliferation measured by incorporation of [3H]thymidine in lymphocytes with Phytohemagglutininin at a concentration of 0.125 microg with compound at 10 uM
Homo sapiens [20] = organism: Homo sapiens; assay: Mitogen-induced human lymphocyte proliferation measured by incorporation of [3H]thymidine in lymphocytes with Pokeweed mitogen at a concentration of 1/1250 microg with compound at 1 uM
Homo sapiens [21] = organism: Homo sapiens; assay: Mitogen-induced human lymphocyte proliferation measured by incorporation of [3H]thymidine in lymphocytes with Phytohemagglutininin at a concentration of 0.125 microg with compound at 50 uM
Homo sapiens [22] = organism: Homo sapiens; assay: Mitogen-induced human lymphocyte proliferation measured by incorporation of [3H]thymidine in lymphocytes with Pokeweed mitogen at a concentration of 1/1250 microg with compound at 0.1 uM
Homo sapiens [23] = organism: Homo sapiens; assay: Mitogen-induced human lymphocyte proliferation measured by incorporation of [3H]thymidine in lymphocytes with Concanavalin A (Con A) at a concentration of 0.25 microg with compound at 50 uM
Homo sapiens [24] = organism: Homo sapiens; assay: Mitogen-induced human lymphocyte proliferation measured by incorporation of [3H]thymidine in lymphocytes with Pokeweed mitogen at a concentration of 1/1250 microg with compound at 50 uM
Homo sapiens [25] = organism: Homo sapiens; assay: Mitogen-induced human lymphocyte proliferation measured by incorporation of [3H]thymidine in lymphocytes with Pokeweed mitogen at a concentration of 1/5000 microg with compound at 0.1 uM
Homo sapiens [26] = organism: Homo sapiens; assay: Mitogen-induced human lymphocyte proliferation measured by incorporation of [3H]thymidine in lymphocytes with Concanavalin A (Con A) at a concentration of 0.25 microg with compound at 0.1 uM
Homo sapiens [27] = organism: Homo sapiens; assay: Mitogen-induced human lymphocyte proliferation measured by incorporation of [3H]thymidine in lymphocytes with Phytohemagglutininin at a concentration of 1 ug with compound at 0.1 uM
Homo sapiens [28] = organism: Homo sapiens; assay: Mitogen-induced human lymphocyte proliferation measured by incorporation of [3H]thymidine in lymphocytes with Phytohemagglutininin at a concentration of 1 ug with compound at 50 uM
Homo sapiens [29] = organism: Homo sapiens; assay: Mitogen-induced human lymphocyte proliferation measured by incorporation of [3H]thymidine in lymphocytes with Phytohemagglutininin at a concentration of 1 ug with compound at 1 uM
Homo sapiens [30] = organism: Homo sapiens; assay: Mitogen-induced human lymphocyte proliferation measured by incorporation of [3H]thymidine in lymphocytes with Pokeweed mitogen at a concentration of 1/5000 microg with compound at 1 uM
Homo sapiens [31] = organism: Homo sapiens; assay: Mitogen-induced human lymphocyte proliferation measured by incorporation of [3H]thymidine in lymphocytes with Phytohemagglutininin at a concentration of 0.25 ug with compound at 50 uM
Homo sapiens [32] = organism: Homo sapiens; assay: Mitogen-induced human lymphocyte proliferation measured by incorporation of [3H]thymidine in lymphocytes with Concanavalin A (Con A) at a concentration of 0.5 ug with compound at 10 uM
Homo sapiens [33] = organism: Homo sapiens; assay: Mitogen-induced human lymphocyte proliferation measured by incorporation of [3H]thymidine in lymphocytes with Pokeweed mitogen at a concentration of 1/1250 ug with compound at 0.1 uM
Homo sapiens [34] = organism: Homo sapiens; assay: Mitogen-induced human lymphocyte proliferation measured by incorporation of [3H]thymidine in lymphocytes with Phytohemagglutininin at a concentration of 0.25 ug with compound at 400 uM
Homo sapiens [35] = organism: Homo sapiens; assay: Mitogen-induced human lymphocyte proliferation measured by incorporation of [3H]thymidine in lymphocytes with Concanavalin A (Con A) at a concentration of 0.5 ug with compound at 0.1 uM
Homo sapiens [36] = organism: Homo sapiens; assay: Mitogen-induced human lymphocyte proliferation measured by incorporation of [3H]thymidine in lymphocytes with Phytohemagglutininin at a concentration of 0.25 ug with compound at 1 uM
Homo sapiens [37] = organism: Homo sapiens; assay: Mitogen-induced human lymphocyte proliferation measured by incorporation of [3H]thymidine in lymphocytes with Concanavalin A (Con A) at a concentration of 0.5 ug with out compound
Homo sapiens [38] = organism: Homo sapiens; assay: Mitogen-induced human lymphocyte proliferation measured by incorporation of [3H]thymidine in lymphocytes with Phytohemagglutininin at a concentration of 0.25 ug with compound at 10 uM
Homo sapiens [39] = organism: Homo sapiens; assay: Mitogen-induced human lymphocyte proliferation measured by incorporation of [3H]-thymidine in lymphocytes with Phytohemagglutininin at a concentration of 0.25 ug with compound at 0.1 uM
Homo sapiens [40] = organism: Homo sapiens; assay: Mitogen-induced human lymphocyte proliferation measured by incorporation of [3H]thymidine in lymphocytes with Concanavalin A (Con A) at a concentration of 0.5 ug with compound at 50 uM
Homo sapiens [41] = organism: Homo sapiens; assay: Mitogen-induced human lymphocyte proliferation measured by incorporation of [3H]thymidine in lymphocytes with Pokeweed mitogen at a concentration of 1/1250 ug with compound at 50 uM
Homo sapiens [42] = organism: Homo sapiens; assay: Mitogen-induced human lymphocyte proliferation measured by incorporation of [3H]thymidine in lymphocytes with Pokeweed mitogen at a concentration of 1/1250 ug with compound at 10 uM
Homo sapiens [43] = organism: Homo sapiens; assay: Mitogen-induced human lymphocyte proliferation measured by incorporation of [3H]thymidine in lymphocytes with Concanavalin A at a concentration of 0.5 ug with compound at 400 uM
Homo sapiens [44] = organism: Homo sapiens; assay: Mitogen-induced human lymphocyte proliferation measured by incorporation of [3H]thymidine in lymphocytes with Pokeweed mitogen at a concentration of 1/1250 ug with compound at 1 uM
Homo sapiens [45] = organism: Homo sapiens; assay: Mitogen-induced human lymphocyte proliferation measured by incorporation of [3H]-thymidine in lymphocytes with Phytohemagglutininin at a concentration of 1 ug with compound at 10 uM
Homo sapiens [46] = organism: Homo sapiens; assay: Mitogen-induced human lymphocyte proliferation measured by incorporation of [3H]thymidine in lymphocytes with Pokeweed mitogen at a concentration of 1/1250 ug with compound at 400 uM
Homo sapiens [47] = organism: Homo sapiens; assay: Mitogen-induced human lymphocyte proliferation measured by incorporation of [3H]-thymidine in lymphocytes with Concanavalin A (Con A) at a concentration of 0.5 ug with compound at 1 uM
Homo sapiens [48] = organism: Homo sapiens; assay: Mitogen-induced human lymphocyte proliferation measured by incorporation of [3H]thymidine in lymphocytes with Pokeweed mitogen at a concentration of 1/1250 ug with out compound
Homo sapiens [49] = organism: Homo sapiens; assay: Mitogen-induced human lymphocyte proliferation measured by incorporation of [3H]thymidine in lymphocytes with Phytohemagglutininin at a concentration of 0.25 ug with out compound

Nc1nc(O)c2c(C(=O)O)cn(C3O[C@H](CO)[C@@H](O)[C@H]3O)c2n1 (some centres undefined)
Incorporation (Homo sapiens [1]): 54392
Incorporation (Homo sapiens [2]): 40349
Incorporation (Homo sapiens [3]): 10034
Incorporation (Homo sapiens [4]): 52418
Incorporation (Homo sapiens [5]): 42403
Incorporation (Homo sapiens [6]): 42486
Incorporation (Homo sapiens [7]): 43600
Incorporation (Homo sapiens [8]): 13682
Incorporation (Homo sapiens [9]): 43757
Incorporation (Homo sapiens [10]): 15708
Incorporation (Homo sapiens [11]): 42735
Incorporation (Homo sapiens [12]): 55547
Incorporation (Homo sapiens [13]): 14118
Incorporation (Homo sapiens [14]): 40053
Incorporation (Homo sapiens [15]): 9782
Incorporation (Homo sapiens [16]): 14865
Incorporation (Homo sapiens [17]): 42670
Incorporation (Homo sapiens [18]): 1268
Incorporation (Homo sapiens [19]): 17242
Incorporation (Homo sapiens [20]): 53594
Incorporation (Homo sapiens [21]): 15707
Incorporation (Homo sapiens [22]): 51152
Incorporation (Homo sapiens [23]): 12990
Incorporation (Homo sapiens [24]): 50597
Incorporation (Homo sapiens [25]): 47896
Incorporation (Homo sapiens [26]): 45121
Incorporation (Homo sapiens [27]): 38824
Incorporation (Homo sapiens [28]): 36835
Incorporation (Homo sapiens [29]): 45537
Incorporation (Homo sapiens [30]): 44790

Nc1nc2c(c(C(=O)N[C@@H](CCC(=O)O)C(=O)O)nn2C2O[C@H](CO)[C@@H](O)[C@H]2O)c(=O)[nH]1 (some centres undefined)
Incorporation (Homo sapiens [31]): 14187
Incorporation (Homo sapiens [2]): 56641
Incorporation (Homo sapiens [32]): 47573
Incorporation (Homo sapiens [33]): 51918
Incorporation (Homo sapiens [34]): 13781
Incorporation (Homo sapiens [35]): 43786
Incorporation (Homo sapiens [12]): 44427
Incorporation (Homo sapiens [36]): 12995
Incorporation (Homo sapiens [37]): 26393
Incorporation (Homo sapiens [38]): 16224
Incorporation (Homo sapiens [39]): 8002
Incorporation (Homo sapiens [40]): 41114
Incorporation (Homo sapiens [41]): 53140
Incorporation (Homo sapiens [42]): 49105
Incorporation (Homo sapiens [43]): 45681
Incorporation (Homo sapiens [44]): 56187
Incorporation (Homo sapiens [45]): 50830
Incorporation (Homo sapiens [27]): 49176
Incorporation (Homo sapiens [28]): 50246
Incorporation (Homo sapiens [29]): 50330
Incorporation (Homo sapiens [46]): 49556
Incorporation (Homo sapiens [47]): 49196
Incorporation (Homo sapiens [48]): 40443
Incorporation (Homo sapiens [49]): 6506
